# Source: patent US6417174B1, “Inhibitors of β-lactamases and uses therefor” (Northwestern University, priority 1997, dated 2002)
# Read-outs that look alike come from different tables or passages of the source.
# What was measured:
# [1] = tested on: E. coli RYC1000 harboring pBGTEM-10 producing TEM-10 β-lactamase (EC-T10); experiment: microbe, parasite or virus in culture; type: cell-based, Escherichia coli
# Experimental: (§1) After incubation, the growth of the cells was visually inspected. The minimum inhibitory concentration (MIC) is the lowest concentration where there no cell growth was observed.
# (§2) The following strains were used: Enterobacter cloacae cell line with derepressed β-lactamase production (Ent-Der), and Escherichia coli RYC1000 (araD139 D lacU169 rpsL D rib7 thiA gyrA recA56) cell lines, harboring the plasmid pBGS19 (with no β-lactamase), or the β-lactamase containing plasmids pBGAmpC (AmpC β-lactamase from E. coli; Eco-AmpC), or pBGAmpC-MHN (AmpC β-lactamase from Enterobacter cloacae; Eco-AmpCEnt). […] TEM-10 and TEM-24 differ from TEM-1 due to the following point substitutions: TEM-10 (R164S, E240K); TEM-24 (L102K, L162S, S235T, A237K). TEM-10 and TEM-24 also differ from TEM-1 in being extended spectrum enzymes (i.e., they react with a greater range of substrates than TEM-1). Also tested were clinical isolates of Pseudomonas aeruginosa. All bacterial strains and plasmids are available from Jesus Blazquez and Fernando Baquero, Servicio de Microbiologia, Hospital Ramon y Cajal, National Institute of Health, Madrid, Spain.
# (§3) Several ratios, including 1:1, 2:1, 4:1, and 1:3, of β-lactam antibiotic (amoxicillin (AX) or ceftazidime (CAZ)) to boronic acid compound were used in the assays. Tazobactam (TAZO), a clinically used β-lactamase inibitor, was used as a positive control.
# [2] = tested on: E. coli RYC1000 harboring pBGAmpC-E. coli producing AmpC (ECR-AmpCEc); experiment: microbe, parasite or virus in culture; type: cell-based, Escherichia coli
# Experimental: as §1, §2, §3
# [3] = tested on: E. coli RYC1000 harboring plasmid pBGAmpC-MHN (AmpC β-lactamase of Enterobacter cloacae); experiment: microbe, parasite or virus in culture; type: cell-based, Escherichia coli; conditions: for MIC of ceftazidime plus inhibitor: Table 3A, proportion 4/1, given as CAZ/inhibitor; for MIC of ceftazidime plus inhibitor / MIC of inhibitor used alone without ceftazidime: AmpC-MHN; for MIC of inhibitor used alone without ceftazidime: Table 3B; as to MIC of ceftazidime plus inhibitor: values in µg/ml
# Experimental: as §1, §2, §3
# [4] = tested on: E. coli RYC1000 harboring a plasmid coding for a mutant of AmpC from Enterobacter (ECR-AmpCEnM); experiment: microbe, parasite or virus in culture; type: cell-based, Escherichia coli
# Experimental: as §1, §2, §3
# [5] = tested on: E. coli RYC1000 harboring pBGTEM-1 producing TEM-1 β-lactamase (EC-T1); experiment: microbe, parasite or virus in culture; type: cell-based, Escherichia coli
# Experimental: as §1, §2, §3
# [6] = tested on: β-lactamase derepressed strain of Enterobacter cloacae (Ent-Der); experiment: microbe, parasite or virus in culture; type: cell-based; conditions: for MIC of ceftazidime plus inhibitor: Table 3A, proportion 4/1, given as CAZ/inhibitor; for MIC of ceftazidime plus inhibitor / MIC of inhibitor used alone without ceftazidime: Ent. Der.; for MIC of inhibitor used alone without ceftazidime: Table 3B; as to MIC of ceftazidime plus inhibitor: values in µg/ml
# Experimental: as §1, §2, §3
# [7] = molecular target: AmpC β-lactamase from E. coli (Escherichia coli, UniProt P00811); experiment: biochemical; type: biochemical
# [8] = tested on: E. coli RYC1000 harboring plasmid pBGTEM-24 (TEM-24 β-lactamase); experiment: microbe, parasite or virus in culture; type: cell-based, Escherichia coli; conditions: for MIC of ceftazidime plus inhibitor: Table 3A, proportion 4/1, given as CAZ/inhibitor; for MIC of inhibitor used alone without ceftazidime: Table 3B; as to MIC of ceftazidime plus inhibitor: values in µg/ml
# Experimental: as §1, §2, §3
# [9] = tested on: E. coli RYC1000 harboring plasmid pBGS19 (no β-lactamase); experiment: microbe, parasite or virus in culture; type: cell-based, Escherichia coli; conditions: for MIC of ceftazidime plus inhibitor: Table 3A, proportion 4/1; for MIC of ceftazidime plus inhibitor / MIC of inhibitor used alone without ceftazidime: pBGS19; for MIC of inhibitor used alone without ceftazidime: Table 3B
# Experimental: as §1, §2, §3
# [10] = molecular target: T1, TEM-1 β-lactamase from E. coli (Escherichia coli, UniProt P62593); experiment: Inhibition of TEM-1 β-lactamase, spectrophotometric assay (FAP substrate); type: biochemical
# T1 construct: gift: Natalie Strynadka, University of Alberta
# [11] = Escherichia coli, read-out: MIC of amoxicillin (AX)
# [12] = Enterobacter cloacae, read-out: MIC of amoxicillin (AX)
# [13] = pH 7, read-out: Ki E. coli AmpC
# [14] = Tables 2A/2B, pH 7.0, 25° C., 100 μM FAP, N.I. = no inhibition observed at an inhibitor concentration of 100 μM, read-out: Ki E. coli TEM-1
# [15] = Table 5, as described in Example 2, read-out: Ki AmpC
# [16] = Tables 2A/2B, pH 7.0, 25° C., 100 μM cephalothin, read-out: Ki E. coli AmpC
# T1 sequence (P62593 24-286 limits assumed): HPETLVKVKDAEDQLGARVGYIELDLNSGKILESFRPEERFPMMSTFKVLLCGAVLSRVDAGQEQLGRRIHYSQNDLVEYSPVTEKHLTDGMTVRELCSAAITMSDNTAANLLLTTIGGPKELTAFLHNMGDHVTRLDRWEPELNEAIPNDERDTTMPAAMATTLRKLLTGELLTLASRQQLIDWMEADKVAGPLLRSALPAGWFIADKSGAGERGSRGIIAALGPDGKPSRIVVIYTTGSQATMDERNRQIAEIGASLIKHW
# Chain of AmpC β-lactamase from E. coli (P00811 20-377): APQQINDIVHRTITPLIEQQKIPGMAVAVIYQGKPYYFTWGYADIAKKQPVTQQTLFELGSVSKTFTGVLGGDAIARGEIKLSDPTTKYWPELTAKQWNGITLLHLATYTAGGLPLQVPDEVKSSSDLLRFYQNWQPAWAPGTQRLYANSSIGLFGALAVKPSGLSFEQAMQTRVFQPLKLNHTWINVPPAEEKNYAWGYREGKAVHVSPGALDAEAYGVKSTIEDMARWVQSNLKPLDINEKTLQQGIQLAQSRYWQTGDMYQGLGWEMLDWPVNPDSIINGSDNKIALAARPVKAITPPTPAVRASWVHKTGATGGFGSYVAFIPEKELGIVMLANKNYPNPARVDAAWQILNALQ
smiles,measurement,setting,value
"CC1(C)S[C@@H]2[C@H](NC(=O)[C@H](N)c3ccc(O)cc3)C(=O)N2[C@H]1C(=O)O [AX, amoxicillin, reference compound]",MIC,[1]; [11],> 2050 µg/mL
same,MIC,[2]; [11],> 2050 µg/mL
same,MIC,[3]; [12],> 2050 µg/mL
same,MIC,"[4]; Enterobacter, read-out: MIC of amoxicillin (AX)",> 2050 µg/mL
same,MIC,[5]; [11],> 2050 µg/mL
same,MIC,[6]; [12],> 2050 µg/mL
OB(O)c1csc2ccccc12,Ki,[7]; read-out: Ki AmpC,0.78 ± 0.08 µM
"OB(O)c1cccs1 [TH2B, thiophene-2-boronic acid]",MIC of ceftazidime plus inhibitor,[8],128/32
same,MIC of inhibitor used alone without ceftazidime,[8],128 µg/mL
same,MIC of amoxicillin plus inhibitor,"[1]; Table 4A, EC-T10, proportion 4/1",256 µg/mL
same,MIC of inhibitor used alone without amoxicillin,"[1]; Table 4B, EC-T10, not tested above 128 μg/ml, “256” indicates no inhibition of cell growth",128 µg/mL
same,MIC of amoxicillin plus inhibitor,"[2]; Table 4A, ECR-AmpCEc, proportion 4/1",64 µg/mL
same,MIC of inhibitor used alone without amoxicillin,"[2]; Table 4B, ECR-AmpCEc, not tested above 128 μg/ml, “256” indicates no inhibition of cell growth",128 µg/mL
same,MIC of ceftazidime plus inhibitor,[3],8/2
same,MIC of inhibitor used alone without ceftazidime,[3],128 µg/mL
same,MIC of amoxicillin plus inhibitor,"[3]; Table 4A, EC-AmpCEn, proportion 4/1",32 µg/mL
same,MIC of inhibitor used alone without amoxicillin,"[3]; Table 4B, ECAmpCEn, not tested above 128 μg/ml, “256” indicates no inhibition of cell growth",128 µg/mL
same,MIC of amoxicillin plus inhibitor,"[4]; Table 4A, ECR-AmpCEnM, proportion 4/1",32 µg/mL
same,MIC of inhibitor used alone without amoxicillin,"[4]; Table 4B, ECRAmpCEnM, not tested above 128 μg/ml, “256” indicates no inhibition of cell growth",64 µg/mL
same,MIC of ceftazidime plus inhibitor,[9],<0.25 µg/mL
same,MIC of inhibitor used alone without ceftazidime,[9],128 µg/mL
same,MIC of inhibitor used alone without amoxicillin,"[9]; Table 4B, EC, not tested above 128 μg/ml, “256” indicates no inhibition of cell growth",64 µg/mL
same,MIC of amoxicillin plus inhibitor,"[5]; Table 4A, EC-T1, proportion 4/1",128 µg/mL
same,MIC of inhibitor used alone without amoxicillin,"[5]; Table 4B, EC-T1, not tested above 128 μg/ml, “256” indicates no inhibition of cell growth",64 µg/mL
same,MIC of ceftazidime plus inhibitor,[6],32/8
same,MIC of inhibitor used alone without ceftazidime,[6],256 µg/mL
same,MIC of amoxicillin plus inhibitor,"[6]; Table 4A, Ent-Der., proportion 4/1",64 µg/mL
same,MIC of inhibitor used alone without amoxicillin,"[6]; Table 4B, Ent-Der., not tested above 128 μg/ml, “256” indicates no inhibition of cell growth",128 µg/mL
same,Ki,[10],31 µM
OB(O)[C@@H]1CCOC1 [(R)-3-tetrahydrofuranyl-boronic acid],Ki,[7]; read-out: Ki for AmpC,1.4 ± 0.1 µM
"OB(O)c1ccc(Br)cc1 [4BPB, 4-bromophenylboronic acid]",Ki,[7]; Ki E. coli AmpC,2.6 µM
same,Ki,[10],31.3 µM
"Oc1ccc(N=Nc2ccc(Br)cc2)cc1B1OB(c2cc(N=Nc3ccc(Br)cc3)ccc2O)OB(c2cc(N=Nc3ccc(Br)cc3)ccc2O)O1 [4BPAPB, 2,4,6-tris(β-(4-bromophenylazo)-2-hydroxyphenyl) boroxin]",Ki,[7]; [13],7.2 µM
same,MIC of ceftazidime plus inhibitor,[8],256/64
same,MIC of inhibitor used alone without ceftazidime,[8],256 µg/mL
same,MIC of ceftazidime plus inhibitor,[3],8/2
same,MIC of inhibitor used alone without ceftazidime,[3],256 µg/mL
same,MIC of ceftazidime plus inhibitor,[9],<0.25 µg/mL
same,MIC of inhibitor used alone without ceftazidime,[9],128 µg/mL
same,MIC of ceftazidime plus inhibitor,[6],512/128
same,MIC of inhibitor used alone without ceftazidime,[6],>512 µg/mL
same,Ki,[10]; [14],1.2 µM
O=C1OC(=O)c2ccccc2/C1=N/Nc1cccc(B(O)O)c1,Ki,[7]; [15],0.075 µM
"OB(c1ccccc1)c1ccccc1 [DFB, diphenylboronic acid]",inhibition of AmpC (in words),[7],lacks measurable inhibition
same,Ki,[7]; [16],> 500 µM
same,Ki,[10]; [14],> 100 µM
OB(O)c1cccc(C(F)(F)F)c1 [3TFMB],"Ki values (AmpC), range in words",[7],one to two
same,Ki,[7]; [13],1.6 µM
same,Ki,[10]; [14],85 µM
OB(O)c1ccc(B(O)O)cc1 [B14DA],Ki,[7]; [13],6.9 µM
same,Ki,[10]; [14],40 µM
"OB(O)c1ccsc1 [TH3B, thiopene-3-boronic acid]",Ki,[7]; [13],17 µM
same,Ki,[7]; read-out: Ki for AmpC,22.1 ± 3.5 µM
same,Ki,[10]; [14],100 µM
CN1C(=O)/C(=N\Nc2cccc(B(O)O)c2)c2ccccc2C1=O,Ki,[7]; [15],0.075 µM
"OB(O)c1cc(N=Nc2cccc(C(F)(F)F)c2)ccc1O [HFAB, 2-hydroxy-5-(3-(trifluoromethyl)phenylazo) benzeneboronic acid]",Ki,[7]; [16],1.3 µM
"OB(O)c1cc2ccccc2o1 [BZBF2B, benzo[b]furan-2-boronic acid]",activity relative to furan-2-boronic acid parent (AmpC),[7],about 1000 fold
same,Ki,[7]; Ki E. coli AmpC,0.07 µM
same,Ki,[10],8 µM
OB(O)c1ccc2c(c1)OCO2,Ki,[7]; [15],53.4 ± 6.1 µM
"OB(O)c1ccccc1 [2FDB, phenylboronic acid, reference compound]",Ki,[7]; [16],8 µM
same,Ki,[10],> 100 µM
